{
  "source": "patent US20050042281A1",
  "about": "“Compositions for delivering therapeutic agents across the oral mucosa” (priority 2003, published 2005)",
  "key": {"[1]": {"experiment": "Membrane assay (parallel artificial membrane, effective permeability)", "settings": "for Papp: PAMPA", "procedure": "(§1) This assay uses a lipid-coated membrane to predict lipid mucosal membrane penetration.\n(§2) The membrane apparatus consists of a dodecane membrane sandwiched between a donor and acceptor cell.\n(§3) Membrane assays were performed using oxycodone HCl solutions at a pH of 6.5, 9.5, and 10.0. The pH of the solutions was adjusted using a freshly prepared 0.01 M sodium bicarbonate—sodium carbonate buffer. Permeation was measured by determining the concentrations of oxycodone in the acceptor cell and is expressed as Pe (effective permeability in centimeters per second)."}, "[2]": {"experiment": "Extent of un-ionized form at a given pH, worked out from pKa", "type": "physicochemical", "text": "Conversion of the ionized form to the un-ionized form for basic agents is related to pH by the formula: pH=pKa +Log10 (Un-ionized concentration/Ionized concentration). When the pH is the same as the pKa, equimolar concentrations of the unionized form and ionized form exist. […] Similarly, when the pH is two units higher than the pKa, the ratio of un-ionized form to the ionized form is 100:1. As noted above, the un-ionized form is lipophilic and, therefore, more capable of passing through the mucous membranes than the ionized form, which is lipophobic in nature. Accordingly, increasing the pH of the saliva favors conversion of the ionized form into the un-ionized form for basic agents, and the final pH may be determined by making use of the above formula for any basic agent."}, "in vitro": {"experiment": "in vitro", "settings": "PAMPA", "procedure": "as §1, §2, §3"}, "[3]": {"settings": "pH at which net charge is zero; cited from earlier work"}},
  "data": [
    {"smiles": "Cc1nccn1CC1CCc2c(c3ccccc3n2C)C1=O", "note": "(stereo not shown) [Ondansetron]", "values": [
      {"measurement": "increase of effective permeability", "setting": "[1]; pH 8.5 relative to pH 5.4", "value": "> 1000", "unit": "%"},
      {"measurement": "increase of effective permeability", "setting": "[1]; pH 8.5 relative to pH 7.4", "value": "more than 200%"}
    ]},
    {"smiles": "COc1ccc2c3c1O[C@H]1C(=O)CC[C@@]4(O)[C@@H](C2)N(C)CC[C@]314", "note": "[Oxycodone, oxycodone]", "values": [
      {"measurement": "un-ionized", "setting": "[2]; at pH 9.9", "value": 99, "unit": "%"},
      {"measurement": "un-ionized", "setting": "[2]; at pH 10.9", "value": 100, "unit": "%"},
      {"measurement": "Papp", "setting": "[1]; pH 6.5", "value": 227, "unit": "×10⁻⁶ cm/s"},
      {"measurement": "Papp", "setting": "[1]; pH 9.5", "value": 490, "unit": "×10⁻⁶ cm/s"},
      {"measurement": "Papp", "setting": "[1]; pH 10", "value": 554, "unit": "×10⁻⁶ cm/s"}
    ]},
    {"smiles": "CNS(=O)(=O)Cc1ccc2[nH]cc(CCN(C)C)c2c1", "note": "[Sumatriptan, sumatriptan]", "values": [
      {"measurement": "un-ionized", "setting": "[2]; at pH 10.5", "value": 99, "unit": "%"},
      {"measurement": "un-ionized", "setting": "[2]; at pH 11.5", "value": 100, "unit": "%"},
      {"measurement": "Papp", "setting": "in vitro; pH 9", "value": 599, "unit": "×10⁻⁶ cm/s"},
      {"measurement": "Papp", "setting": "in vitro; pH 9.5", "value": 945, "unit": "×10⁻⁶ cm/s"},
      {"measurement": "Papp", "setting": "in vitro; pH 10", "value": 1560, "unit": "×10⁻⁶ cm/s"}
    ]},
    {"smiles": "CN1CCC23c4c5ccc(O)c4OC2C(O)C=CC3C1C5", "note": "(stereo not shown) [morphine]", "values": [
      {"measurement": "isoelectric point", "setting": "[3]", "value": 9.1}
    ]}
  ]
}
